According to the NIST ThermoML archive (doi:10.1016/j.jct.2006.10.011):
± gives the expanded uncertainty stated by the source.

Assay: molar heat capacity at constant pressure
Conditions: 101.33 kPa, Crystal

## O [water]
0.4719 K, Low-temperature adiabatic
  molar heat capacity at constant pressure: 4.834e-06 ± 4.7e-06 J/K/mol
0.4841 K, Low-temperature adiabatic
  molar heat capacity at constant pressure: 2.38e-05 ± 2.6e-06 J/K/mol
0.5 K, adiabatic
  molar heat capacity at constant pressure: 2.28e-05 ± 6.4e-06 J/K/mol
0.5191 K, Low-temperature adiabatic
  molar heat capacity at constant pressure: 3.571e-05 ± 4.3e-06 J/K/mol
0.5328 K, Low-temperature adiabatic
  molar heat capacity at constant pressure: 2.99e-05 ± 3.1e-06 J/K/mol
0.5456 K, Low-temperature adiabatic
  molar heat capacity at constant pressure: 3.104e-05 ± 4.2e-06 J/K/mol
0.5713 K, Low-temperature adiabatic
  molar heat capacity at constant pressure: 3.382e-05 ± 4.9e-06 J/K/mol
0.5859 K, Low-temperature adiabatic
  molar heat capacity at constant pressure: 3.177e-05 ± 4.9e-06 J/K/mol
0.5999 K, Low-temperature adiabatic
  molar heat capacity at constant pressure: 3.883e-05 ± 3.7e-06 J/K/mol
0.6287 K, Low-temperature adiabatic
  molar heat capacity at constant pressure: 4.342e-05 ± 3.4e-06 J/K/mol
0.6451 K, Low-temperature adiabatic
  molar heat capacity at constant pressure: 3.414e-05 ± 4.2e-06 J/K/mol
0.6608 K, Low-temperature adiabatic
  molar heat capacity at constant pressure: 4.582e-05 ± 4.6e-06 J/K/mol
0.6935 K, Low-temperature adiabatic
  molar heat capacity at constant pressure: 5.952e-05 ± 5.2e-06 J/K/mol
0.7107 K, Low-temperature adiabatic
  molar heat capacity at constant pressure: 6.565e-05 ± 6.4e-06 J/K/mol
0.7283 K, Low-temperature adiabatic
  molar heat capacity at constant pressure: 7.207e-05 ± 6.4e-06 J/K/mol
0.764 K, Low-temperature adiabatic
  molar heat capacity at constant pressure: 7.817e-05 ± 8.2e-06 J/K/mol
0.783 K, Low-temperature adiabatic
  molar heat capacity at constant pressure: 8.554e-05 ± 7.7e-06 J/K/mol
0.8021 K, Low-temperature adiabatic
  molar heat capacity at constant pressure: 9.413e-05 ± 7.9e-06 J/K/mol
0.8407 K, Low-temperature adiabatic
  molar heat capacity at constant pressure: 0.0001158 ± 8e-06 J/K/mol
0.8618 K, Low-temperature adiabatic
  molar heat capacity at constant pressure: 0.0001219 ± 8e-06 J/K/mol
0.8828 K, Low-temperature adiabatic
  molar heat capacity at constant pressure: 0.0001311 ± 9.6e-06 J/K/mol
0.9245 K, Low-temperature adiabatic
  molar heat capacity at constant pressure: 0.0001506 ± 9.4e-06 J/K/mol
0.9708 K, Low-temperature adiabatic
  molar heat capacity at constant pressure: 0.000169 ± 9.8e-06 J/K/mol
1 K, adiabatic
  molar heat capacity at constant pressure: 0.0001825 ± 1.2e-05 J/K/mol
1.015 K, Low-temperature adiabatic
  molar heat capacity at constant pressure: 0.0001986 ± 1e-05 J/K/mol
1.04 K, Low-temperature adiabatic
  molar heat capacity at constant pressure: 0.0002059 ± 1.1e-05 J/K/mol
1.066 K, Low-temperature adiabatic
  molar heat capacity at constant pressure: 0.0002218 ± 1.3e-05 J/K/mol
1.116 K, Low-temperature adiabatic
  molar heat capacity at constant pressure: 0.0002582 ± 1.3e-05 J/K/mol
1.146 K, Low-temperature adiabatic
  molar heat capacity at constant pressure: 0.0002671 ± 1.5e-05 J/K/mol
1.173 K, Low-temperature adiabatic
  molar heat capacity at constant pressure: 0.0002946 ± 1.7e-05 J/K/mol
1.228 K, Low-temperature adiabatic
  molar heat capacity at constant pressure: 0.0003386 ± 1.7e-05 J/K/mol
1.261 K, Low-temperature adiabatic
  molar heat capacity at constant pressure: 0.0003738 ± 1.9e-05 J/K/mol
1.292 K, Low-temperature adiabatic
  molar heat capacity at constant pressure: 0.0004076 ± 1.8e-05 J/K/mol
1.352 K, Low-temperature adiabatic
  molar heat capacity at constant pressure: 0.0004587 ± 2.1e-05 J/K/mol
1.388 K, Low-temperature adiabatic
  molar heat capacity at constant pressure: 0.0004915 ± 2.1e-05 J/K/mol
1.485 K, Low-temperature adiabatic
  molar heat capacity at constant pressure: 0.0006013 ± 2.4e-05 J/K/mol
1.5 K, adiabatic
  molar heat capacity at constant pressure: 0.0006167 ± 2.6e-05 J/K/mol
1.522 K, Low-temperature adiabatic
  molar heat capacity at constant pressure: 0.0006394 ± 2.5e-05 J/K/mol
1.561 K, Low-temperature adiabatic
  molar heat capacity at constant pressure: 0.0006901 ± 2.5e-05 J/K/mol
1.634 K, Low-temperature adiabatic
  molar heat capacity at constant pressure: 0.0007957 ± 3.1e-05 J/K/mol
1.675 K, Low-temperature adiabatic
  molar heat capacity at constant pressure: 0.0008489 ± 3.1e-05 J/K/mol
1.716 K, Low-temperature adiabatic
  molar heat capacity at constant pressure: 0.0009132 ± 3.1e-05 J/K/mol
1.731 K, Low-temperature adiabatic
  molar heat capacity at constant pressure: 0.0009652 ± 3.2e-05 J/K/mol
1.798 K, Low-temperature adiabatic
  molar heat capacity at constant pressure: 0.001053 ± 3.5e-05 J/K/mol
1.816 K, Low-temperature adiabatic
  molar heat capacity at constant pressure: 0.001109 ± 3.6e-05 J/K/mol
1.843 K, Low-temperature adiabatic
  molar heat capacity at constant pressure: 0.001123 ± 3.5e-05 J/K/mol
1.887 K, Low-temperature adiabatic
  molar heat capacity at constant pressure: 0.001207 ± 3.9e-05 J/K/mol
1.904 K, Low-temperature adiabatic
  molar heat capacity at constant pressure: 0.00125 ± 3.8e-05 J/K/mol
1.977 K, Low-temperature adiabatic
  molar heat capacity at constant pressure: 0.00139 ± 4.3e-05 J/K/mol
1.998 K, Low-temperature adiabatic
  molar heat capacity at constant pressure: 0.001434 ± 4.4e-05 J/K/mol
2 K, adiabatic
  molar heat capacity at constant pressure: 0.001465 ± 4.6e-05 J/K/mol
2.027 K, Low-temperature adiabatic
  molar heat capacity at constant pressure: 0.001484 ± 4.4e-05 J/K/mol
2.076 K, Low-temperature adiabatic
  molar heat capacity at constant pressure: 0.001598 ± 4.7e-05 J/K/mol
2.095 K, Low-temperature adiabatic
  molar heat capacity at constant pressure: 0.001659 ± 4.7e-05 J/K/mol
2.175 K, Low-temperature adiabatic
  molar heat capacity at constant pressure: 0.00184 ± 5.5e-05 J/K/mol
2.2 K, Low-temperature adiabatic
  molar heat capacity at constant pressure: 0.001902 ± 5.4e-05 J/K/mol
2.304 K, Low-temperature adiabatic
  molar heat capacity at constant pressure: 0.002208 ± 5.9e-05 J/K/mol
2.421 K, Low-temperature adiabatic
  molar heat capacity at constant pressure: 0.002544 ± 6.6e-05 J/K/mol
2.5 K, adiabatic
  molar heat capacity at constant pressure: 0.002874 ± 7.2e-05 J/K/mol
2.536 K, Low-temperature adiabatic
  molar heat capacity at constant pressure: 0.002963 ± 7.5e-05 J/K/mol
2.664 K, Low-temperature adiabatic
  molar heat capacity at constant pressure: 0.003432 ± 8.3e-05 J/K/mol
2.791 K, Low-temperature adiabatic
  molar heat capacity at constant pressure: 0.003994 ± 9e-05 J/K/mol
2.932 K, Low-temperature adiabatic
  molar heat capacity at constant pressure: 0.004612 ± 0.0001 J/K/mol
3 K, adiabatic
  molar heat capacity at constant pressure: 0.004998 ± 0.00011 J/K/mol
3.073 K, Low-temperature adiabatic
  molar heat capacity at constant pressure: 0.005384 ± 0.00011 J/K/mol
3.228 K, Low-temperature adiabatic
  molar heat capacity at constant pressure: 0.006206 ± 0.00012 J/K/mol
3.381 K, Low-temperature adiabatic
  molar heat capacity at constant pressure: 0.007213 ± 0.00013 J/K/mol
3.5 K, adiabatic
  molar heat capacity at constant pressure: 0.008013 ± 0.00015 J/K/mol
3.552 K, Low-temperature adiabatic
  molar heat capacity at constant pressure: 0.008311 ± 0.00015 J/K/mol
3.719 K, Low-temperature adiabatic
  molar heat capacity at constant pressure: 0.00968 ± 0.00017 J/K/mol
3.906 K, Low-temperature adiabatic
  molar heat capacity at constant pressure: 0.01117 ± 0.00019 J/K/mol
4 K, adiabatic
  molar heat capacity at constant pressure: 0.01212 ± 0.0002 J/K/mol
4.089 K, Low-temperature adiabatic
  molar heat capacity at constant pressure: 0.01302 ± 0.00021 J/K/mol
4.294 K, Low-temperature adiabatic
  molar heat capacity at constant pressure: 0.01503 ± 0.00023 J/K/mol
4.498 K, Low-temperature adiabatic
  molar heat capacity at constant pressure: 0.01756 ± 0.00026 J/K/mol
4.5 K, adiabatic
  molar heat capacity at constant pressure: 0.01755 ± 0.00026 J/K/mol
4.723 K, Low-temperature adiabatic
  molar heat capacity at constant pressure: 0.02031 ± 0.0003 J/K/mol
